We go through four compounds from ChEMBL document CHEMBL1149948, “Chemical and enzymatic synthesis of high-affinity selectin ligands” (Bioorg Med Chem Lett, 1997).

One assay has as its target T1, P-selectin (Homo sapiens, UniProt P16109).
T1 sequence (P16109 whole entry): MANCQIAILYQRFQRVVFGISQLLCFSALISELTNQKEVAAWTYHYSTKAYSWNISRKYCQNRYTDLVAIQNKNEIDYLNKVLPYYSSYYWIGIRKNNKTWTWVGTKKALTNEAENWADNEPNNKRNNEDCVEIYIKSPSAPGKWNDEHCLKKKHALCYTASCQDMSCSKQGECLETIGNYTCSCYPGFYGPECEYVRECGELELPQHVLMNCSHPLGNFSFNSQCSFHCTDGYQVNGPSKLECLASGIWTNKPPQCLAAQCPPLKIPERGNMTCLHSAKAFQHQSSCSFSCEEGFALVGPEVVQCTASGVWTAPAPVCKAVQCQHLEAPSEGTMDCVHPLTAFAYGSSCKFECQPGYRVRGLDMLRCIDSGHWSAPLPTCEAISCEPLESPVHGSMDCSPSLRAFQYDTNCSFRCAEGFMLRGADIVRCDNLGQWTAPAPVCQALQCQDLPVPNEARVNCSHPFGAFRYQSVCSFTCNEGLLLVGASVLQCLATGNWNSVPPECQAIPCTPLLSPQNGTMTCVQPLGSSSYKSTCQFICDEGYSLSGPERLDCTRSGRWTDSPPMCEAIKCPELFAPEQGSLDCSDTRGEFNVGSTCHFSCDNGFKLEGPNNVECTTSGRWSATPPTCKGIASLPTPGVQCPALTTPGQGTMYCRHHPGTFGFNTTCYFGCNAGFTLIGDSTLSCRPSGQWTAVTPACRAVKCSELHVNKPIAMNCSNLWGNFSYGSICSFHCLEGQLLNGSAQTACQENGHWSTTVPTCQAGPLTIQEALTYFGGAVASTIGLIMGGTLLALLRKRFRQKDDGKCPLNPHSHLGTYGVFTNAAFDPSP
Put plainly: Tested for its ability to inhibit HL60 cell adhesion to P-selectin-IgG fusion proteins. It is filed as cell-based, HL-60.

The target of another assay is T2, E-selectin (Homo sapiens, UniProt P16581).
T2 sequence (P16581 whole entry): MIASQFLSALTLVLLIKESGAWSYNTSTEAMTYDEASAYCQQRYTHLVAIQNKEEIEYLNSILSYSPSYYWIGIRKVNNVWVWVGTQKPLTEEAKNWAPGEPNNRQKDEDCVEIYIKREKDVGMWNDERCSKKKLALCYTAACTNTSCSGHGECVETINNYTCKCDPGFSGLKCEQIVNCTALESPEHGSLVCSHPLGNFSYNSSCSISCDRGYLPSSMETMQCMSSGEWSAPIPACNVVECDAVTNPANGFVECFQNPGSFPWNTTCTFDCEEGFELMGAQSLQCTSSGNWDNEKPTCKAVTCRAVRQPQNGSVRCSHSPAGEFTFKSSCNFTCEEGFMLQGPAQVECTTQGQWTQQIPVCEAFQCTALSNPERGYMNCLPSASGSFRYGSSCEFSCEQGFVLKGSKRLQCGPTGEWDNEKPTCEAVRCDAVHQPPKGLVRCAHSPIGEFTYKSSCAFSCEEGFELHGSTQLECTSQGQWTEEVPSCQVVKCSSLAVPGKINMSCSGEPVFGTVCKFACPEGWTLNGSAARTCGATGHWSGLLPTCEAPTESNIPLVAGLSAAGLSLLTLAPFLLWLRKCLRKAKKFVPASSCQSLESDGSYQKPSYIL
The experiment in a line: Tested for its ability to inhibit HL60 cell adhesion to Selectin E IgG fusion proteins. It is filed as cell-based, HL-60.

Structures are written as SMILES.

As usually defined, the IC50 is the point on the concentration scale where inhibition reaches its midpoint. High values mean a need for much substance, low ones inhibition by little substance. At P-selectin (hl-60), `CC(=O)N[C@@H]1[C@H](OCCCCCCN)O[C@@H](CO)[C@@H](O[C@@H]2O[C@@H](CO)[C@H](O)[C@H](O[C@]3(C(=O)O)C[C@@H](O)[C@@H](NC(C)=O)[C@H]([C@H](O)[C@H](O)CO)O3)[C@@H]2O)[C@@H]1O[C@@H]1O[C@@H](C)[C@@H](O)[C@H](O)[C@@H]1O` returned an IC50 of 2000 µM.
Turning to `CC(=O)N[C@@H]1[C@H](OCCCCCCN)O[C@@H](CO)[C@@H](O[C@@H]2O[C@@H](CO)[C@H](O)[C@H](O[C@]3(C(=O)O)C[C@@H](O)C[C@H]([C@H](O)[C@H](O)CO)O3)[C@@H]2O)[C@@H]1O[C@@H]1O[C@@H](C)[C@@H](O)[C@H](O)[C@@H]1O`, the IC50 against P-selectin and on E-selectin was 700 µM each time.
In the case of `CC(=O)N[C@@H]1[C@H](OCCCCCCN)O[C@@H](CO)[C@@H](O[C@@H]2O[C@@H](CO)[C@H](O)[C@H](O[C@]3(C(=O)O)C[C@@H](O)[C@@H](N)[C@H]([C@H](O)[C@H](O)CO)O3)[C@@H]2O)[C@@H]1O[C@@H]1O[C@@H](C)[C@@H](O)[C@H](O)[C@@H]1O`, the results for the IC50 against P-selectin and at E-selectin were 1000 µM and 900 µM, respectively.
On to `C[C@@H]1O[C@@H](O[C@@H]2[C@H](N)[C@H](OCCCCCCN)O[C@@H](CO)[C@H]2O[C@@H]2O[C@@H](CO)[C@H](O)[C@H](O[C@]3(C(=O)O)C[C@@H](O)[C@@H](N)[C@H]([C@H](O)[C@H](O)CO)O3)[C@@H]2O)[C@@H](O)[C@@H](O)[C@@H]1O`, for which the IC50 amounted to 160 µM on P-selectin and 270 µM on E-selectin.
